These results are taken from patent US9840513B2 (AbbVie S.à.r.l., priority 2015, dated 2017).

A value given as a limit tells only on which side of the number the result lay.

The target of the assay is T1, F508delCFTR cell surface expression in CFBE41o-F508delCFTR-HRP cells (Homo sapiens, UniProt P13569, DEL508-508).
T1 construct: fused on or other part: Horseradish peroxidase (HRP) reporter inserted in the fourth exofacial (extracellular) loop of CFTR; expression is doxycycline-inducible
The assay is described as follows: Cell Surface Expression-Horse Radish Peroxidase (CSE-HRP) Assay. Type of assay: cell-based. The following applies: for EC50: CFBE41o-F508delCFTR-HRP cells, 18-24 hours at 33° C., 8-point curve, highest concentration 20 μM; for Maximum % activity (%): maximum at any tested concentration, normalized to on-plate positive control (3 μM). The method in brief:
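CFBE41o- cells with HRP-tagged F508delCFTR, expression induced by 0.5 μg/mL doxycycline for 72 h at 37 °C, then compound for 18-24 h at 33 °C (8-point, 3-fold, top 20 μM). Surface HRP measured by luminol luminescence; % activity normalised to 3 μM positive-control corrector; EC50 from variable-slope sigmoidal fit, three replicate plates.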

T1 sequence (P13569 with tags, fused parts or gaps DEL508-508 limits assumed): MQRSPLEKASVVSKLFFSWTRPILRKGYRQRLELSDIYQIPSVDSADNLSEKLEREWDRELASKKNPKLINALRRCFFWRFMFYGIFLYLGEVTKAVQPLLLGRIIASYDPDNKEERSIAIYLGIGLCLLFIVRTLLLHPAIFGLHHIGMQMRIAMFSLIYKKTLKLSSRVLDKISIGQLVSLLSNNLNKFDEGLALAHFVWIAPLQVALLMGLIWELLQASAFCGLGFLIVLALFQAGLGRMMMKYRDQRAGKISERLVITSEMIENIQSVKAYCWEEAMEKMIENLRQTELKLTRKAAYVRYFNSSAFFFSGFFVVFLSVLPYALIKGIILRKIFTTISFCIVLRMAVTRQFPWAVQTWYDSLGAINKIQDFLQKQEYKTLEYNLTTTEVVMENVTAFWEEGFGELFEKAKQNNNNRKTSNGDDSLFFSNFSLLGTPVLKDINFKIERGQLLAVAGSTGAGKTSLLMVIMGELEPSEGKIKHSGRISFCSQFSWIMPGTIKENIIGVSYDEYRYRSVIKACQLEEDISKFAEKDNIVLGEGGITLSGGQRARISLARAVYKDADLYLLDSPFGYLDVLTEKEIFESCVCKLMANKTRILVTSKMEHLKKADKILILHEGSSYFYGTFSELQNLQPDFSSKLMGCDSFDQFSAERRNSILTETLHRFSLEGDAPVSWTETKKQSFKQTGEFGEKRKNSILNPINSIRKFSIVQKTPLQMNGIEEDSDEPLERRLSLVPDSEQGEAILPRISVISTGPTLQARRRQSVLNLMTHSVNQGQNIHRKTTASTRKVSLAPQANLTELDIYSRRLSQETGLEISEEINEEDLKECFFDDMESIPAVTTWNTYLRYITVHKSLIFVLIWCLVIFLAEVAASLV
T1 sequence (P13569 919-1480 limits assumed, stated change not applied): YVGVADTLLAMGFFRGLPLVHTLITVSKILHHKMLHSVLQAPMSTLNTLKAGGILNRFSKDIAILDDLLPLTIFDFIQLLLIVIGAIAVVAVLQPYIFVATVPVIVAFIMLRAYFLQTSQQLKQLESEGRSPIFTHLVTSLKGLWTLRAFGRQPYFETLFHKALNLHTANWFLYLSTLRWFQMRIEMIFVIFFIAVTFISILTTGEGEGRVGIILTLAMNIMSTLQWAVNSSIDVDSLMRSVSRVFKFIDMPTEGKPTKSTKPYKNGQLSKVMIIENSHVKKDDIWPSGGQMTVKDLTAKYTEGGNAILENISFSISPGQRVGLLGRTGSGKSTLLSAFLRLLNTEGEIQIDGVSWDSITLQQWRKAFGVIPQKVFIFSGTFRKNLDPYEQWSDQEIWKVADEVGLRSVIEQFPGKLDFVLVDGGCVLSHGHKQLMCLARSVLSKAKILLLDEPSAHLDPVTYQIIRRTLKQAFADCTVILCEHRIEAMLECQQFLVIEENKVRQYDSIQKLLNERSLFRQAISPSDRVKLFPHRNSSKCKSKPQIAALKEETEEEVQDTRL

By EC50 is commonly meant the midpoint of the concentration-response curve. A high value points to weaker potency. With `COc1ccc2c(c1)O[C@@H](c1ccc(C(=O)NC3CCS(=O)(=O)CC3)cn1)C[C@H]2NC(=O)[C@@]1(C)COc2cc3c(cc21)OC(F)(F)O3` [Example 217, 6-[(2R,4R)-4-{[(7R)-2,2-difluoro-7-methyl-6,7-dihydro-2H-furo[2,3-f][1,3]benzodioxole-7-carbonyl]amino}-7-methoxy-3,4-dihydro-2H-1-benzopyran-2-yl]-N-(1,1-dioxo-1lambda^6-thian-4-yl)pyridine-3-carboxamide], it took 0.12 µM to reach a half-maximal effect (EC50) and the “Maximum % activity (%)” value is 104%.

On to `COc1ccc2c(c1)O[C@@H](c1ccc(C(=O)NC(C)(C)CO)cn1)C[C@H]2NC(=O)[C@@]1(C)COc2cc3c(cc21)OC(F)(F)O3` [Example 215, 6-[(2R,4R)-4-{[(7R)-2,2-difluoro-7-methyl-6,7-dihydro-2H-furo[2,3-f][1,3]benzodioxole-7-carbonyl]amino}-7-methoxy-3,4-dihydro-2H-1-benzopyran-2-yl]-N-(1-hydroxy-2-methylpropan-2-yl)pyridine-3-carboxamide], for which a half-maximal effect (EC50) was put at 0.03 µM and the “Maximum % activity (%)” value amounted to 113%.

With `Cc1ccc(NC(=O)[C@@]2(C)COc3cc4c(cc32)OC(F)(F)O4)nc1-c1cccc(S(=O)(=O)NC2CC2)c1` [Example 124, (7R)—N-{6-[3-(cyclopropylsulfamoyl)phenyl]-5-methylpyridin-2-yl}-2,2-difluoro-7-methyl-6,7-dihydro-2H-furo[2,3-f][1,3]benzodioxole-7-carboxamide], the response was half-maximal at 0.74 µM (EC50) and the “Maximum % activity (%)” value is on record as 124%.

Take “(7R)—N-[6-(3-benzylpyrrolidin-1-yl)pyridin-2-yl]-2,2-difluoro-7-methyl-6,7-dihydro-2H-furo[2,3-f][1,3]benzodioxole-7-carboxamide [Example 113]”: the EC50 was determined as 1.11 µM and the “Maximum % activity (%)” value amounted to 83%.

As to `C[C@]1(C(=O)Nc2cccc(N3CC[C@@H](O)C3)n2)COc2cc3c(cc21)OC(F)(F)O3` [Example 91, (7R)-2,2-difluoro-N-{6-[(3R)-3-hydroxypyrrolidin-1-yl]pyridin-2-yl}-7-methyl-6,7-dihydro-2H-furo[2,3-f][1,3]benzodioxole-7-carboxamide], the EC50 is 0.21 µM and the “Maximum % activity (%)” value was 116%.

Take `COc1ccc2c(c1)O[C@@H](c1ccc(C(=O)N3CC(O)(CCO)C3)cn1)C[C@H]2NC(=O)[C@@]1(C)COc2cc3c(cc21)OC(F)(F)O3` [Example 239, (7R)-2,2-difluoro-N-[(2R,4R)-2-{5-[3-hydroxy-3-(2-hydroxyethyl)azetidine-1-carbonyl]pyridin-2-yl}-7-methoxy-3,4-dihydro-2H-1-benzopyran-4-yl]-7-methyl-6,7-dihydro-2H-furo[2,3-f][1,3]benzodioxole-7-carboxamide]: the midpoint of the response, the EC50, lay at 0.04 µM and the “Maximum % activity (%)” value is listed as 111%.

In the case of `C=Cc1cnc([C@H]2C[C@@H](NC(=O)[C@@]3(C)COc4cc5c(cc43)OC(F)(F)O5)c3ccc(OC)cc3O2)cn1` [Example 190, (7R)—N-[(2R,4R)-2-(5-ethenylpyrazin-2-yl)-7-methoxy-3,4-dihydro-2H-1-benzopyran-4-yl]-2,2-difluoro-7-methyl-6,7-dihydro-2H-furo[2,3-f][1,3]benzodioxole-7-carboxamide], a half-maximal effect (EC50) was put at 0.09 µM and the “Maximum % activity (%)” value turned out to be 115%.

With `COc1ccc2c(c1)O[C@@H](c1ccc(C(=O)N3CCOCC3CO)cn1)C[C@H]2NC(=O)[C@@]1(C)COc2cc3c(cc21)OC(F)(F)O3` (stereo partly drawn) [Example 240, (7R)-2,2-difluoro-N-[(2R,4R)-2-{5-[3-(hydroxymethyl)morpholine-4-carbonyl]pyridin-2-yl}-7-methoxy-3,4-dihydro-2H-1-benzopyran-4-yl]-7-methyl-6,7-dihydro-2H-furo[2,3-f][1,3]benzodioxole-7-carboxamide], the EC50 stood at 0.06 µM and the “Maximum % activity (%)” value was 132%.

With `C[C@]1(C(=O)N[C@@H]2C[C@H]([C@H]3CC[C@H](C(=O)N(CCO)Cc4ccccc4)CC3)Oc3cc(OC(F)(F)F)ccc32)COc2cc3c(cc21)OC(F)(F)O3` [Example 264, (7R)—N-[(2R,4R)-2-{trans-4-[benzyl(2-hydroxyethyl)carbamoyl]cyclohexyl}-7-(trifluoromethoxy)-3,4-dihydro-2H-1-benzopyran-4-yl]-2,2-difluoro-7-methyl-6,7-dihydro-2H-furo[2,3-f][1,3]benzodioxole-7-carboxamide], the EC50 worked out at 0.06 µM and the “Maximum % activity (%)” value came to 186%.

Take `CCOC(=O)[C@H]1CC[C@H]([C@@H]2C[C@H](NC(=O)[C@@]3(C)COc4cc5c(cc43)OC(F)(F)O5)c3ccc(OC(F)F)cc3O2)CC1` [Example 159, ethyl trans-4-[(2S,4S)-7-(difluoromethoxy)-4-{[(7R)-2,2-difluoro-7-methyl-6,7-dihydro-2H-furo[2,3-f][1,3]benzodioxole-7-carbonyl]amino}-3,4-dihydro-2H-1-benzopyran-2-yl]cyclohexane-1-carboxylate]: a half-maximal effect (EC50) was put at 1.02 µM and the “Maximum % activity (%)” value was found to be 82%.

On to `COc1ccc2c(c1)O[C@@H](c1ccc(C(=O)N3CCC(F)(F)CC3)cc1)C[C@H]2NC(=O)[C@@]1(C)COc2cc3c(cc21)OC(F)(F)O3` [Example 223, (7R)—N-{(2R,4R)-2-[4-(4,4-difluoropiperidine-1-carbonyl)phenyl]-7-methoxy-3,4-dihydro-2H-1-benzopyran-4-yl}-2,2-difluoro-7-methyl-6,7-dihydro-2H-furo[2,3-f][1,3]benzodioxole-7-carboxamide], for which the 50% effective concentration (EC50) came out at 0.07 µM and the “Maximum % activity (%)” value is recorded as 157%.

Turning to `C[C@]1(C(=O)N[C@H]2C[C@@H](C3CCN(C[C@H](O)CO)CC3)Oc3cc(OC(F)(F)F)ccc32)COc2cc3c(cc21)OC(F)(F)O3` [Example 188, (7R)—N-[(2S,4S)-2-{1-[(2S)-2,3-dihydroxypropyl]piperidin-4-yl}-7-(trifluoromethoxy)-3,4-dihydro-2H-1-benzopyran-4-yl]-2,2-difluoro-7-methyl-6,7-dihydro-2H-furo[2,3-f][1,3]benzodioxole-7-carboxamide], the EC50 was above 20 µM and the “Maximum % activity (%)” value turned out to be 20%.

Take `C[C@]1(C(=O)Nc2cc(C3CC3)nn(-c3cccc(C(=O)O)c3)c2=O)COc2cc3c(cc21)OC(F)(F)O3` [Example 29, 3-[3-cyclopropyl-5-{[(7R)-2,2-difluoro-7-methyl-6,7-dihydro-2H-furo[2,3-f][1,3]benzodioxole-7-carbonyl]amino}-6-oxopyridazin-1(6H)-yl]benzoic acid]: the response was half-maximal at 1.07 µM (EC50) and the “Maximum % activity (%)” value turned out to be 155%.

With `Cc1ccc(NC(=O)[C@]2(C)COc3cc4c(cc32)OC(F)(F)O4)nc1-c1cccc(C(=O)O)c1` [Example 4, 3-(6-{[(7S)-2,2-difluoro-7-methyl-6,7-dihydro-2H-furo[2,3-f][1,3]benzodioxole-7-carbonyl]amino}-3-methylpyridin-2-yl)benzoic acid], the EC50 was above 20 µM and the “Maximum % activity (%)” value was 12%.

Consider `CCOC(=O)[C@H]1CC[C@H]([C@H]2C[C@@H](NC(=O)[C@@]3(C)COc4cc5c(cc43)OC(F)(F)O5)c3ccc(OC(F)F)cc3O2)CC1` [Example 156, ethyl trans-4-[(2R,4R)-7-(difluoromethoxy)-4-{[(7R)-2,2-difluoro-7-methyl-6,7-dihydro-2H-furo[2,3-f][1,3]benzodioxole-7-carbonyl]amino}-3,4-dihydro-2H-1-benzopyran-2-yl]cyclohexane-1-carboxylate], for which the EC50 worked out at 0.09 µM and the “Maximum % activity (%)” value was found to be 142%.

With `CC(C)(C)c1cc2cc(NC(=O)[C@@]3(C)COc4cc5c(cc43)OC(F)(F)O5)c(F)cc2n1C[C@@H](O)CO` [Example 133, (7R)—N-{2-tert-butyl-1-[(2R)-2,3-dihydroxypropyl]-6-fluoro-1H-indol-5-yl}-2,2-difluoro-7-methyl-6,7-dihydro-2H-furo[2,3-f][1,3]benzodioxole-7-carboxamide], the EC50 was found to be 0.3 µM and the “Maximum % activity (%)” value amounted to 132%.

`Cc1ccc(NC(=O)[C@@]2(C)COc3cc4c(cc32)OC(F)(F)O4)nc1-c1ccc(C(=O)NS(C)(=O)=O)cc1` [Example 142, (7R)-2,2-difluoro-N-(6-{4-[(methanesulfonyl)carbamoyl]phenyl}-5-methylpyridin-2-yl)-7-methyl-6,7-dihydro-2H-furo[2,3-f][1,3]benzodioxole-7-carboxamide]: the midpoint of the response, the EC50, lay at 2.5 µM and the “Maximum % activity (%)” value was 180%.

Take `CCOC(=O)c1csc(-c2cccc(NC(=O)[C@@]3(C)COc4cc5c(cc43)OC(F)(F)O5)n2)c1` [Example 82, ethyl 5-(6-{[(7R)-2,2-difluoro-7-methyl-6,7-dihydro-2H-furo[2,3-f][1,3]benzodioxole-7-carbonyl]amino}pyridin-2-yl)thiophene-3-carboxylate]: the EC50 stood at 3.16 µM and the “Maximum % activity (%)” value is 116%.

As for `COC(=O)c1cccc([C@H]2C[C@@H](NC(=O)[C@]3(C)COc4cc5c(cc43)OC(F)(F)O5)c3ccc(OC)cc3O2)c1` [Example 12], the EC50 is above 20 µM and the “Maximum % activity (%)” value came out at 14%.

With `CC(CO)NC(=O)[C@H]1CC[C@H]([C@H]2C[C@@H](NC(=O)[C@@]3(C)COc4cc5c(cc43)OC(F)(F)O5)c3ccc(OC(F)(F)F)cc3O2)CC1` (stereo partly drawn) [Example 259, (7R)-2,2-difluoro-N-[(2R,4R)-2-{trans-4-[(1-hydroxypropan-2-yl)carbamoyl]cyclohexyl}-7-(trifluoromethoxy)-3,4-dihydro-2H-1-benzopyran-4-yl]-7-methyl-6,7-dihydro-2H-furo[2,3-f][1,3]benzodioxole-7-carboxamide], it took 0.08 µM to reach a half-maximal effect (EC50) and the “Maximum % activity (%)” value is 163%.
